Experimental findings from patent US11771685B2, “Compounds for the treatment of neurological or mitochondrial diseases” (MUSC FOUNDATION FOR RESEARCH DEVELOPMENT, priority 2018, dated 2023) are described below.

One data set relates to HT22 cells. Kind of data set: HT22 oxytosis (glutamate-induced cell death) neuroprotection assay. It is filed as cell-based, mouse. Particulars: 10 mM Glu. The procedure: The HT22 murine hippocampal cell system was chosen as an initial phenotypic screen for neuroprotective efficacy (Andreux et al., 2013; Andreux et al., 2014; Ohlow et al., 2017; Schubert and Maher, 2012). HT22 cells exposed to high extracellular Glu ([…]) undergo oxytosis, a non-apoptotic programmed cell death involving glutathione (GSH) depletion followed by ROS accumulation, oxidative damage, and a cytotoxic signaling cascade (Tan et al., 2001). Glu blocks the −xC cystine antiporter, causing (Tan et al., 2001) cells to accumulate severe oxidative stress, mitochondrial depolarization, disrupted mitochondrial morphology, and Ca^2+ influx (Tan et al., 2001; Yang et al., 2011; Cheng et al., 2013—cellular events that may occur in neurological diseases, including epilepsy. Thus, the immortalized HT22 cell line is a well-established model of neuronal oxidative stress (Sagara and Schubert, 1998; Matsumoto et al., 1996; Albrecht et al., 2010; Ha and Park, 2006; van Leyen et al., 2005; Tobaben et al., 2011), and a verified model of neurodegeneration to screen for potential neuroprotective drugs (Albrecht et al., 2010; van Leyen et al., 2008; Lewerenz et al., 2009; Lewerenz et al., 2003).
Consistent with that work, most of the 2-amino compounds achieved protection of HT22 cells against glutamate-induced oxytosis in the nM to μM range. […] Neuroprotection based on relative cell viability compared to +Glu and −Glu control cells was measured.
The HT22 neuronal cell line is a subclone of HT4, derived from the mouse hippocampus (Morimoto and Koshland, 1990). […] The HT22 cells used in this study were kindly provided by Dr. David Schubert (The Salk Institute for Biological Studies, La Jolla, CA, USA). The cells were grown in Dulbecco's Modified Eagle's Medium (DMEM/high glucose) supplemented with 10% fetal bovine serum (Hyclone) and 5 mL of antibiotic-antimycotic (Amphotericin B, Penicillin, and Streptomycin; Invitrogen) at 37° C. in 5% CO2.
HT-22 cells were seeded onto 96-well plates at 2.5×10^3 cells per well in 75 μL of medium and maintained at 37° C. in 5% CO2 overnight prior to the initiation of experimental treatments. For glutamate toxicity testing, cells were subsequently treated with 25 μL of medium containing glutamate (monosodium glutamate, Sigma, 1 M stock concentration in media, to achieve a final concentration of 10 mM) plus compound (stock in DMSO) and maintained at 37° C. in 5% CO2 for 24 hr. CellTiter-Blue® (resazurin cell viability assay reagent) was then added to each well at a final concentration of 0.125 mg/mL. The mixture was allowed to incubate for 2-4 hr until sufficient color change occurred. Cell viability was measured as a function of resorufin fluorescence intensity using a Tecan M200 Pro spectrophotometer, 560 nm/590 nm (excitation/emission). Cell viability was calculated as a percentage compared with untreated controls. EC50s were determined using GraphPad Prism's “log(inhibitor) vs. normalized response-Variable slope” function. Morphology of HT22 cells following treatments was determined by phase-contrast microscopy.
(§1) Statistical analyses were performed with GraphPad Prism 6 software. For the in vitro HT22 oxytosis assay, dose-response data were fit using GraphPad Prism's log(inhibitor) vs normalized response-variable slope parameters to determine EC50 values and 95% confidence intervals. For the zebrafish locomotive anti-seizure activity data, multiple comparisons were made using a one-way analysis of variance (ANOVA) with a Kruskal-Wallis Test, followed by the Dunn's Method to determine significant differences between all pairs or between control and experimental groups using the Dunn Method for Joint Ranking. Differences were considered statistically significant when p<0.05. Data from zebrafish experiments are represented as scatter dot plots of individual measurements, with means±standard deviation indicated by bars.

Data set [1] concerns PTZ-induced seizure activity in zebrafish larvae. The data set is described as follows: Zebrafish PTZ-induced seizure model. It is filed as in vivo. Particulars: for anti-seizure activity / minimal effective concentration: 7 dpf larvae; for anti-seizure activity: PTZ; for minimal effective concentration: 1 hr pre-treatment, 10 mM PTZ, read-out: Anti-seizure activity: lowest tested dose with significant difference vs PTZ-only group. The procedure:
The zebrafish PTZ-induced seizure model was used to determine the most promising compounds' in vivo efficacy. Zebrafish larvae (7 dpf) were treated with the compound for 1 hr prior to inducing seizures with PTZ. As established by previous larval zebrafish anti-seizure studies (Rahn et al., 2014; Hansen et al., 2004; Baraban et al., 2005), total distance traveled by each fish after seizure induction was measured and used as a proxy for seizure activity. Following collection of locomotor data, observation of a startle response and visual inspection for abnormal morphology confirmed that alterations in swim activity were not caused by compound toxicity.
We induced seizures in 7 dpf zebrafish larvae by the addition of […] PTZ as originally developed by Baraban et al., 2005. In a 48-well plate, one 7-dpf zebrafish was added per well. Larvae were dosed with each compound at a sub-lethal dose 1 hr prior to PTZ treatment. Two control rows were included with each experiment—tank water only control and PTZ only. Seizures were induced by adding PTZ to wells to yield a final concentration of 10 mM. After 5 min, the plate was transferred to the Daniovision instrument (Noldus Information Technology) and the chamber light was turned on. After 2 min, MediaRecorder (Noldus) was used to record video for 15 min. A small number of videos were acquired at 25 frames per second, but the majority of data were acquired at 60 frames per second. […] Ethovision XT software (Noldus) was used to track the fish movement from the video images in order to calculate the total distance traveled over 15 min. All experimental comparisons were made between animals from the same clutch.
as §1

Another data set deals with corneal kindled mouse. The data set is described as follows: Mouse corneal kindled model. It is filed as in vivo. Particulars: 5% DMSO: 95% Neobee. The procedure:
Synthesis for both compounds has been successfully scaled up. The pharmacokinetic (PK) parameters of these two Vitamin K analogs were determined via intravenous, intraperitoneal and oral administration in mice, and preliminary in vitro ADMET parameters were assessed (Table 3). These compounds are Ames-negative, have hepatic stability greater than 1 hour, can be formulated in oral solution and IV injection solution, can be synthesized in greater than 1 mg quantities, and have established brain PK. However, brain tissue binding was high for both compounds (97-98%). Both 3 (NT-181) and 17 (NT-102) have been tested for efficacy in the 6 Hz mouse seizure model at 22 mA and 32 mA, the corneal kindled mouse model, and the rat in vitro spontaneous electrographic bursting model of pharmacoresistance (Table 4). […] Preliminary studies with this new formulation reveal excellent solubility with full protection in the 6 Hz mouse seizure model at 22 mA, and quantification of both compounds (using this new formulation) in this model at 22 mA, 32 mA and 44 mA, is being performed as well as retesting in the corneal kindled model. […] Rat PK assessments will be performed, and seizure protection assessed in rat models in the ADD workflow such as the 6 Hz model and lamotrigine-resistant amygdala kindled mode.

The nature of data set [2]: Mini-Ames test (mutagenicity). Particulars: in vitro. Format: cell-based.
[3] abbreviates: Mus musculus, HT-22, 24 h, HT22 cells, 24 hr, 95% CI in parentheses.

As to `CCC#CCNC1=CC(=O)c2ccccc2C1=O` [Compound 3, 2-(Pent-2-yn-1-ylamino)naphthalene-1,4-dione], the EC50 in the data set with HT22 cells (setting [3]) is 1010 nM. For the same compound, the “anti-seizure activity” value in data set [1] is on record as “decrease seizures in a zebrafish model of epilepsy in a dose-dependent manner”. For the same compound, the minimal effective concentration in data set [1] (Danio rerio) was no more than 5 µM. Also, the inhibition in vivo at 5 µM in data set [1] (Danio rerio, 5 μM, read-out: reduction of PTZ-induced locomotor activity) amounted to 62%. Besides, the inhibition in vivo at 10 µM in data set [1] (Danio rerio, 10 μM, read-out: reduction of PTZ-induced locomotor activity) came out at 80%. Moreover, in data set [1] (Danio rerio, 20 μM, read-out: reduction of PTZ-induced locomotor activity), the inhibition in vivo at 20 µM was 91%. Further, the “Number of Animals Protected” value in the data set with corneal kindled mouse (300 mg/kg) was 0/8 at 300 mg/kg. For the same compound, the entries for the “Mini-Ames test (mutagenicity)” value in data set [2] and in data set [2] (listed as NT-181) were “Ames-negative” and “Negative”, respectively.

With `CC(C)CCNC1=CC(=O)c2ccccc2C1=O` [Compound 17, 2-(Isopentylamino)naphthalene-1,4-dione], in the data set with HT22 cells (Mus musculus, HT-22, HT22 cells), the EC50 was greater than 12000 nM. Moreover, the minimal effective concentration in data set [1] (Danio rerio) is 5 µM. Moreover, the “Number of Animals Protected” value with corneal kindled mouse (100, 300 and 400 mg/kg) was 0/24 at 100, 300 and 400 mg/kg. For the same compound, the entries for the “Mini-Ames test (mutagenicity)” value in data set [2] and in data set [2] (listed as NT-102) were “Ames-negative” and “Negative”, respectively.

As to `CC(C)CCOC1=CC(=O)c2ccccc2C1=O` [Compound 25, 2-(Isopentyloxy)naphthalene-1,4-dione], the concentration for a half-maximal effect (EC50) in the data set on HT22 cells (HT22 cells, 24 hr, 95% CI in parentheses) was 23.9 nM; with HT22 cells (setting [3]) it was roughly 24 nM. The “anti-seizure activity” value in data set [1] is “decrease seizures in a zebrafish model of epilepsy in a dose-dependent manner”. Also, in data set [1] (Danio rerio), the minimal effective concentration is no more than 5 µM. Also, the inhibition in vivo at 2.5 µM in data set [1] (Danio rerio, 2.5 μM, read-out: reduction of PTZ-induced locomotor activity) was 45%.
